Key:
[1] = system: histamine-induced itching; experiment: Histamine-induced itching animal behavioral test, preparations for oral administration; assay type: in vivo, male C57BL/6 mice; conditions: FIG. 1
Description: An effect of inhibiting or alleviating itching was tested using the preparations for oral administration prepared according to Preparation Example 1. For the test, an animal behavioral test was performed using the mouse model disclosed in Non-Patent Document 6.
Groups each including 10 male C57BL/6 mice weighing 20 g to 23 g were used in the test. These groups were accommodated under control of a temperature of 23° C. to 25° C. The mice were freely fed food and water. For the itching-induced animal behavioral model test, the mice were orally administered the preparations for oral administration having different concentrations of riboflavin, which were prepared according to Preparation Example 1 (100 mg/kg, 300 mg/kg, or 600 mg/kg). In addition, the mice were treated with the control prepared according to Preparation Example 1.
To induce scratching, histamine, which is known to cause an itching sensation in humans, was used. At this time, histamine was dissolved in sterile physiological saline. 30 minutes after administration of the preparations for oral administration, 50 μl (500 μg/site) of histamine was injected intradermally into the back of the neck of each mouse.
The results were analyzed by calculating the mean and standard deviation, and a statistical difference of mean values was determined using a Student's t-test.

[2] = system: histamine-induced itching; experiment: Histamine-induced itching animal behavioral test, local intradermal injection co-administered with histamine; assay type: in vivo, male C57BL/6 mice; conditions: 1 μM/50 μl intradermal, at the same time as histamine 100 μg/site; FIG. 2
Description: An effect of inhibiting or alleviating itching was tested using the local intradermal injection prepared according to Preparation Example 1.
The test was carried out in the same manner as in Experimental Example 1, except for the following. For the itching-induced animal behavioral model test, 1 μM/50 μl of the local intradermal injection prepared according to Preparation Example 1 was injected intradermally into the back of the neck of each mouse. In addition, upon administration of the preparation, 50 μl (100 μg/site) of histamine was injected intradermally at the same time.

[3] = system: skin-afferent nerve tissue; experiment: Histamine-induced peripheral nerve activity in preserved skin-afferent nerve tissue; conditions: histamine administered to the sole of the foot; FIG. 3
Description: Histamine-induced itching is known to occur through peripheral nerve excitation. In the present experimental example, it was examined whether histamine-induced peripheral nerve activity was blocked by riboflavin.
After securing preserved skin-afferent nerve tissue, histamine was administered to the sole of the foot to confirm nerve activity, and such histamine-induced nerve activity was blocked by riboflavin (see FIG. 3).

[4] = system: spinal cord dorsal root ganglion cells; experiment: Histamine-induced current, membrane voltage clamp method; assay type: cell-based; conditions: primary cultured mouse dorsal root ganglion cells, FIG. 4
Description: In addition, to confirm an effect of riboflavin on blocking histamine-induced peripheral nerve activity, it was examined using a membrane voltage clamp method whether a histamine-induced current was inhibited by riboflavin.
To this end, spinal cord dorsal root ganglion cells of each mouse were isolated and primarily cultured, and then electrophysiological characteristics of the spinal cord dorsal root ganglion cells were recorded using the membrane voltage clamp method.

TRPV1 = target: T1, TRPV1 (Homo sapiens, UniProt Q8NER1); experiment: Capsaicin current blocking in TRPV1-expressing HEK293 cells; assay type: cell-based; conditions: TRPV1-expressing HEK 293 cells
T1 construct: expressed in transfected cells; host or cells: HEK 293 cells
T1 sequence (Q8NER1 whole entry, species assumed): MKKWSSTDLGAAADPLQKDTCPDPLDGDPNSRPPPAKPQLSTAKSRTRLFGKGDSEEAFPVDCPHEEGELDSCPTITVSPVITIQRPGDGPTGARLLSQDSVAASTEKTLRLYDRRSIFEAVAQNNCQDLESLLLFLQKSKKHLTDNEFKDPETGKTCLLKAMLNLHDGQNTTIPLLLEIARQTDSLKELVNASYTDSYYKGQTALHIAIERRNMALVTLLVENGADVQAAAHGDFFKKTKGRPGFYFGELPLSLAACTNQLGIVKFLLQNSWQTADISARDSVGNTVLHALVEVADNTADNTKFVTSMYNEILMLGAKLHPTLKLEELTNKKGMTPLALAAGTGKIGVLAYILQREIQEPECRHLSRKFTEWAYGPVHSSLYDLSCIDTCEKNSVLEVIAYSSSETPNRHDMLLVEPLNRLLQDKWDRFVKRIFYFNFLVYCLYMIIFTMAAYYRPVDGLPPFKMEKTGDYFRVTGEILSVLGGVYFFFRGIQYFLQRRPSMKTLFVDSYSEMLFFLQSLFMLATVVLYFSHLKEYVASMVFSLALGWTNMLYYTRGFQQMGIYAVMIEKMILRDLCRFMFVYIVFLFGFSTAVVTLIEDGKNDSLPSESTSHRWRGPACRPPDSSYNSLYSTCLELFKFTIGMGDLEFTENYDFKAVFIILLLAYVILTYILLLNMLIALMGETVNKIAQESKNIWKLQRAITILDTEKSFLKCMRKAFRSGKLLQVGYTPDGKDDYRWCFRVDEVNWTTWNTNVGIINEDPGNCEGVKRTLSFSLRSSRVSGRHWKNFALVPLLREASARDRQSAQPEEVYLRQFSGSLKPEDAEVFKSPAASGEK
Excerpt: TRPV1 was expressed in HEK 293 cells to carry out a capsaicin current blocking experiment. Under these conditions, riboflavin excluded other channels and a direct effect of riboflavin was examined. The results are illustrated in FIG. 5. FIG. 5 illustrates results of confirming that a capsaicin-induced current was inhibited by riboflavin.

[5] = system: histamine-induced itching; experiment: Histamine-induced itching animal behavioral test, preparation for transdermal administration; assay type: in vivo, male C57BL/6 mice
Description: An effect of inhibiting or alleviating itching was tested using the preparation for transdermal administration prepared according to Preparation Example 2. For the test, an animal behavioral experiment was carried out in the same manner as in Experimental Example 1.
In particular, 30 minutes before 100 μg/50 μl of histamine was injected, the preparation for transdermal administration was applied on the skin, and then the preparation was removed 5 minutes before histamine was injected.

Cc1cc2nc3c(=O)[nH]c(=O)nc-3n(C[C@H](O)[C@H](O)[C@H](O)CO)c2cc1C [riboflavin]
dose dependence of effect on inhibiting histamine-induced itching ([1]; oral 100, 300, 600 mg/kg): dose-dependent pattern | histamine-induced itching responses (number of scratches) ([1]; oral 100, 300 or 600 mg/kg, 30 minutes before histamine 500 μg/site intradermal, observed 30 minutes): itching responses were reduced | histamine-induced itching responses (number of scratches) [2]: itching responses were reduced | histamine-induced nerve activity [3]: blocked | histamine-induced inward current [4]: the current is blocked | capsaicin-induced current blocking effect at 100 nM (TRPV1; 100 nM): did not effectively block TRPV1 | capsaicin-induced current blocking effect (TRPV1; several concentrations, FIG. 5): statistically significant effect of blocking channels in a concentration-dependent manner

Cc1cc2nc3c(=O)[nH]c(=O)nc-3n(C[C@H](O)[C@H](O)[C@H](O)CO)c2cc1N(C)C [roseoflavin, 8-demethyl-8-(dimethylamino)-riboflavin]
histamine-induced itching responses ([5]; 1 mM in Vaseline cream on skin 30 minutes before histamine 100 μg/50 μl, removed 5 minutes before, observed 30 minutes, FIG. 8): itching responses were reduced | itching behavioral responses (number of times) ([5]; 1 mM transdermal preparation, control 142 times, 30 minutes): 60 times

Reference: patent US20190175601A1, “COMPOSITION FOR INHIBITING OR ALLEVIATING ITCHING INCLUDING RIBOFLAVIN” (INDUSTRY-UNIVERSITY COOPERATION FOUNDATION HANYANG …, priority 2016, published 2019)
